Key:
Experiment in all cases: Isozyme specificity of 1,2-dioxetane substrates, rhCYP microsomes, 2-step endpoint assay
[1] = target: T1, CYP2C19 (Homo sapiens, UniProt P33261); format: biochemical
T1 construct: purchased BD/Gentest (or other vendor) 456259; host or cells: recombinant human CYP microsomes
Experimental: (§1) Assays were performed using the same conditions (25° C., 5 nM rhCyp, 10 μM substrate, 25 min endpoint assay, with isozyme-specific buffers, Luminoscan plate reader) but on different days.
(§2) Cytochrome P450 assays have been developed to determine the isozyme specificity of novel 1,2-dioxetane chemiluminescent CYP450 substrates. In these assays, a 1,2-dioxetane substrate that has been determined to be a good substrate for a specific CYP450 isozyme is screened against individual recombinant (human or other) CYP450 isozymes. The protocol follows the 2-Step Endpoint assay format described above (Example 2, Format 1). The assay can be performed using either assay conditions that mimic an inhibition assay (Example 1) using substrate concentrations near the known or predicted Km of the substrate with its known isozyme, or at concentrations designed for more sensitive enzyme detection which is generally above the Km. Assays can be performed in several different ways depending on the desired information. If one is seeking to find out if the dioxetane is a substrate for different CYP450 isozymes at the specific isozyme's preferred assay conditions, the assays should be performed using the buffer and assay conditions preferred by each specific isozyme (Format 1). If one wants to find out if the dioxetane substrate is selective for a given CYP450 isozyme at that isozyme's preferred assay conditions, the assay should be performed using only the assay conditions of the matched isozyme (Format 2). Assays use recombinant human (rh) CYP450 isozymes (final [5 or 10 nM]), NADPH Regeneration System (final [1×]) and Potassium Phosphate Buffer prepared in a 2× Master Mix. 50 μL of the Master Mix is added to the wells of a 96-well plate. 40 μL of water is added the rows of the plate containing the Master Mix. The reaction is started by addition of 10 μL of a 10× NADP+ (nicotinamide adenine dinucleotide phosphate) and 1,2-Dioxetane Substrate (final [1 to 10 μM]) mix to assay wells. The assays are incubated for either 25 min (Format 1) or at the specific assay time (see Example 48, Format 2).
(§3) • (See FIGS. 3A, 4A, and 5A.) Materials: • rhCytochrome P450 Isozymes: • CYP3A4 (BD/Gentest, Cat #456202) (or other vendor) • CYP2C19 (BD/Gentest, Cat #456259) (or other vendor) • CYP2C9 (BD/Gentest, Cat #456258) (or other vendor) • CYP2D6 (BD/Gentest, Cat #456217) (or other vendor) • CYP1A2 (BD/Gentest, Cat #456203) (or other vendor) • Or Other CYP450 recombinant isozymes • 200 mM Potassium Phosphate Buffer, pH 7.4 • 100 mM Potassium Phosphate Buffer, pH 7.4 • 100× NADP+ • (10 mM NADP+ in 100 mM Potassium phosphate buffer, pH 7.4) • 100× Regeneration System • (333 mM Glucose-6-phosphate, 30 Units/mL Glucose-6-phosphate dehydrogenase in 100 mM Potassium Phosphate Buffer, pH 7.4) • 1,2-Dioxetane Substrates (in 100% Acetonitrile, water, or acetonitrile/water mixture) • 96 well white microplate • Accelerator II Protocol Overview: (See, FIG. 10). Assay Set-Up:
(§4) Contains: • NADP+: 100× stock is 10 mM NADP+ in 100 mM Potassium Phosphate Buffer, pH 7.4 • 100 μM Known 1,2-Dioxetane Substrate Assay Procedure: • 1. Thaw all reagents on ice, except substrates: warm-up to RT under aluminum foil (light sensitive) • 2. Prepare 2× Master Mixes in 2× reaction buffer (keep on ice).
(§5) • 3. Add 50 μL of the specific 2× Master Mix to the desired wells • 4. Add 40 μL of sterile water (H2O) to each well of the plate • 5. Cover plate with plate sealer and let the assay wells equilibrate to 25° C. or room temperature for a few minutes while you prepare the 10×NADP+/Substrate Mixture. • 6. Prepare 10× NADP+/Substrate Mixture immediately before use (light sensitive!)
(§6) • 100× NADP+: 10× (1× final) • H2O: to final volume. • Add substrate by trituration and vortex to allow for maximum substrate solubility in the aqueous mixture. • *The final organic solvent concentration in the assay should be less than 0.1% and preferably much less. • 7. […]

[2] = tested on: CYP3A family isozymes; format: biochemical, human; settings: dioxetane as enzyme substrate
Experimental: as §1, §2, §3, §4, §5, §6

[3] = target: T2, CYP3A family isozymes (Homo sapiens, UniProt P08684); format: biochemical; settings: FIG. 4A; rhCYP microsomes, 25° C., 25 min, 10 μM substrate, 5 nM rhCYP450, isozyme-preferred potassium phosphate buffer, pH 7.4
T2 construct: purchased BD/Gentest (CYP3A4 only; or other vendor) 456202 (CYP3A4); host or cells: recombinant human CYP microsomes
T2 sequence (P08684 whole entry): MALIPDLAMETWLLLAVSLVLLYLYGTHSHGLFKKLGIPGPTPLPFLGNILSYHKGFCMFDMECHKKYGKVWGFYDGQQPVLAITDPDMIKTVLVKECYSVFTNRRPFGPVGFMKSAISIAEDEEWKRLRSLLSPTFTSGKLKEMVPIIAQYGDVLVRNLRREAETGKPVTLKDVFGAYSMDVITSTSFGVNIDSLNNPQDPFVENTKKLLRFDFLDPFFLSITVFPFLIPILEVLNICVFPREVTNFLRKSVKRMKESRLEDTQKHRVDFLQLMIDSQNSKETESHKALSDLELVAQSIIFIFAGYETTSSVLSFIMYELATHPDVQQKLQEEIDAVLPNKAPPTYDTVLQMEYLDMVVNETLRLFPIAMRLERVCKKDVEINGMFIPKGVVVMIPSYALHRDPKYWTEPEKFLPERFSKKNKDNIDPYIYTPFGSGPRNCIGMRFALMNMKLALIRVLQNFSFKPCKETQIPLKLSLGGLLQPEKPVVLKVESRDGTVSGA
Experimental: as §1, §2, §3, §4, §5, §6

T1 sequence (P33261 whole entry): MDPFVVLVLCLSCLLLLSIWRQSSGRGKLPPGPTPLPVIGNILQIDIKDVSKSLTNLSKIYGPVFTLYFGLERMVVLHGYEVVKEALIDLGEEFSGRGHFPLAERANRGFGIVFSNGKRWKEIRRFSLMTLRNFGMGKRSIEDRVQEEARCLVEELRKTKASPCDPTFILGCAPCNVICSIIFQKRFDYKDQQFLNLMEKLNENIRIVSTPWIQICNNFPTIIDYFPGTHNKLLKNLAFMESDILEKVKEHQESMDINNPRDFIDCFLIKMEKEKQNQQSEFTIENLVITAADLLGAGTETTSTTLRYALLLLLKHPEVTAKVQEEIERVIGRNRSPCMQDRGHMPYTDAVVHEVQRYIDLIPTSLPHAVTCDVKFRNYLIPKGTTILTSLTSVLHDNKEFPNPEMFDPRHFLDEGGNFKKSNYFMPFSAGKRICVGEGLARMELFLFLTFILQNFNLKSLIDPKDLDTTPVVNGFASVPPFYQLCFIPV

COC1(c2cccc(OCc3ccccc3)c2)OOC12C1CC3CC(C1)CC2C3 (stereo not shown) [AMPPD-Bn]
specificity for the CYP2C19 isozyme ([1]; FIG. 4A/5A, rhCYP microsomes, 25° C., 25 min, 10 μM substrate, 5 nM rhCYP450, isozyme-preferred potassium phosphate buffer, pH 7.4): strong specificity
activity from CYP2C19 under CYP2C19 assay conditions ([1]; dioxetane as enzyme substrate, CYP2C19 assay conditions): significant activity
specificity for the CYP3A family isozymes [2]: strong specificity
specificity for CYP3A4 isozyme [3]: strong specificity

From patent US9856508B2, “Chemiluminescent compositions, methods, assays and kits for oxidative enzymes” (LIFE TECHNOLOGIES CORPORATION, priority 2010, dated 2018)
